Paper PMC9667546, “Selective Inhibition of Bruton’s Tyrosine Kinase by a Designed Covalent Ligand Leads to Potent Therapeutic Efficacy in Blood Cancers Relative to Clinically Used Inhibitors” (ACS Pharmacology & Translational Science, 2022)
Several values for one entry are separate records, joined by “and”; a condition that tells them apart may be missing. Identical values can stand only once.

Assays:
TEC = target: T1, TEC (Homo sapiens, UniProt P42680); settings: 1 µM inhibition screening; ref SI 8–10; cited from earlier work
T1 construct: host or cells: HEK296T (so in the source)
T1 sequence (P42680 1-631): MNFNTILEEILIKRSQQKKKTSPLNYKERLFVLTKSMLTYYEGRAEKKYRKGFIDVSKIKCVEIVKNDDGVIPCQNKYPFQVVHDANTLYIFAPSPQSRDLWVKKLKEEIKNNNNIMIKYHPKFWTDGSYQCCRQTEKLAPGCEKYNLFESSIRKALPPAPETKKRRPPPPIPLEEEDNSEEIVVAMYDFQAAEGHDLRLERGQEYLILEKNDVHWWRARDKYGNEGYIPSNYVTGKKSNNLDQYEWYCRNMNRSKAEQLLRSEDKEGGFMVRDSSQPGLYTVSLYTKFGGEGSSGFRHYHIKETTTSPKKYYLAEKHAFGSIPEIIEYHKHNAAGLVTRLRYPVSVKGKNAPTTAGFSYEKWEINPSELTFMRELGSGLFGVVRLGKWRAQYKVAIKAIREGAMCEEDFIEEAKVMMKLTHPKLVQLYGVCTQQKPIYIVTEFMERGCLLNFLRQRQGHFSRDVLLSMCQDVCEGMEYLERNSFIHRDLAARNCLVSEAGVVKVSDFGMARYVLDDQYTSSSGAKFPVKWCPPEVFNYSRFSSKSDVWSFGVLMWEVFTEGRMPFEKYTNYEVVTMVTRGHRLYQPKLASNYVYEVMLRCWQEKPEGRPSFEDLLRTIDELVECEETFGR

TXK = target: T2, TXK (Homo sapiens, UniProt P42681); settings: cited from earlier work
T2 construct: host or cells: HEK296T (so in the source)
T2 sequence (P42681 1-527): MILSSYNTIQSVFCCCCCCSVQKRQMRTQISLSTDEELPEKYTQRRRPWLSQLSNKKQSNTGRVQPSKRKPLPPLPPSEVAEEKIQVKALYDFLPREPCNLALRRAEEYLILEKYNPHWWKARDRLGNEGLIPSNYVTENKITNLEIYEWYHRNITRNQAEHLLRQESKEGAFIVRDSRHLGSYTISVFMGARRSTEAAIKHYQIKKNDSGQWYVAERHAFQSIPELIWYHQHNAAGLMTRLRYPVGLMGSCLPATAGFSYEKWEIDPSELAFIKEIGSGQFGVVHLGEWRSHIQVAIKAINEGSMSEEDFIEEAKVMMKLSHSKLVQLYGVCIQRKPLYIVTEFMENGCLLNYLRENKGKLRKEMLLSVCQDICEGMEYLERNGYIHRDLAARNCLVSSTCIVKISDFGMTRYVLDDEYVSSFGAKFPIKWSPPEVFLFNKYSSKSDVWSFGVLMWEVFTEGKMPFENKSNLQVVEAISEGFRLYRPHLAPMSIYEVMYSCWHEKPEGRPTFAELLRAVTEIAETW

EGFR = target: T3, EGFR (Homo sapiens, UniProt P00533); settings: cited from earlier work
T3 construct: host or cells: HEK296T (so in the source)
T3 sequence (P00533 25-1210): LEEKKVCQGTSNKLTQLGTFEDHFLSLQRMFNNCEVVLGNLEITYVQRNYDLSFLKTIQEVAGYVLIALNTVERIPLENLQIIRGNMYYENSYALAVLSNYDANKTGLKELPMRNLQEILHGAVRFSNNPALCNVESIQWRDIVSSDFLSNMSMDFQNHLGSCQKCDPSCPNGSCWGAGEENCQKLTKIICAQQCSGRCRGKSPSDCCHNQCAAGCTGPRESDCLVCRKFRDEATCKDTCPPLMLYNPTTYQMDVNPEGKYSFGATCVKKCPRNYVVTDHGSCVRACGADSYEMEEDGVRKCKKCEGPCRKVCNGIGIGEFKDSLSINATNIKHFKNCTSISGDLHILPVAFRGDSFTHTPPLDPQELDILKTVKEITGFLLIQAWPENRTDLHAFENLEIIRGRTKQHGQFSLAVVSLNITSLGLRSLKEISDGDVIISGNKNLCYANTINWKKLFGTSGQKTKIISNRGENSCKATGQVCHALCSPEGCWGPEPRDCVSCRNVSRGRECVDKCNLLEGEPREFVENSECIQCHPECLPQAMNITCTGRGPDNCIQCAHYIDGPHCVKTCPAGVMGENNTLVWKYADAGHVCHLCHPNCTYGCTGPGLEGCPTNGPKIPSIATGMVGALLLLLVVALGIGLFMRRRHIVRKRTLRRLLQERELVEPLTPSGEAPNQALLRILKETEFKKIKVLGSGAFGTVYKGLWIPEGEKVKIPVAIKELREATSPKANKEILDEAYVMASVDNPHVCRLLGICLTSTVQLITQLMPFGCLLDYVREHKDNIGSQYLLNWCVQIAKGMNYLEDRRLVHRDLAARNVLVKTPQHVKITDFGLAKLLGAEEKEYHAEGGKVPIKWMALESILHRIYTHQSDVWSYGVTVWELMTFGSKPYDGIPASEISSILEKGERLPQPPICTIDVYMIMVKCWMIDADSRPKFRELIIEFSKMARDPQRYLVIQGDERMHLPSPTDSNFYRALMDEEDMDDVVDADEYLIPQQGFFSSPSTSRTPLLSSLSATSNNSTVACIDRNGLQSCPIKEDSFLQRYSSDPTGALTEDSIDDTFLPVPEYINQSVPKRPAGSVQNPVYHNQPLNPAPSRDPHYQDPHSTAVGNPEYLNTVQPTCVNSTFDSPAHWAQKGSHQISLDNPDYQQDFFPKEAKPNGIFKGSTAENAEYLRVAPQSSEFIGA

BLK = BLK (Homo sapiens, UniProt P51451); settings: cited from earlier work
Chain of BLK (P51451 whole entry): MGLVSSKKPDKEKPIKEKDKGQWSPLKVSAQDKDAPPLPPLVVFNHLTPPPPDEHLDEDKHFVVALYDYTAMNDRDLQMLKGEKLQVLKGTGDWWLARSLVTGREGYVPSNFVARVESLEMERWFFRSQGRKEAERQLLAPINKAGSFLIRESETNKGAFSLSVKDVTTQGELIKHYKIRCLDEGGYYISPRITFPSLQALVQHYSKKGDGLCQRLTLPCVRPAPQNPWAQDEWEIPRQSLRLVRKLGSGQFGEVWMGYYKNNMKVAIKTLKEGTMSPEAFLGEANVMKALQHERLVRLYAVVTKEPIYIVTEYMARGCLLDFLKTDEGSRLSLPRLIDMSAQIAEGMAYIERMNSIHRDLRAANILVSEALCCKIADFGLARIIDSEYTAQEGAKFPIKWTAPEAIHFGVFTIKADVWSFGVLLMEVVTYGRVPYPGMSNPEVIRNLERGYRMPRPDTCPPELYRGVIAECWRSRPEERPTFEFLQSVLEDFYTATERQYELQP

Her2 = settings: read-out: IC50, Her2; Table S3 heat map; ref SI 1-19; cited from earlier work
BTK = BTK (Homo sapiens, UniProt Q06187); set-up: purchased Promega Corporation V2941; settings: Table S3 heat map; ref SI 1-19; read-out: IC50, BTK; cited from earlier work
Chain of BTK (Q06187 whole entry): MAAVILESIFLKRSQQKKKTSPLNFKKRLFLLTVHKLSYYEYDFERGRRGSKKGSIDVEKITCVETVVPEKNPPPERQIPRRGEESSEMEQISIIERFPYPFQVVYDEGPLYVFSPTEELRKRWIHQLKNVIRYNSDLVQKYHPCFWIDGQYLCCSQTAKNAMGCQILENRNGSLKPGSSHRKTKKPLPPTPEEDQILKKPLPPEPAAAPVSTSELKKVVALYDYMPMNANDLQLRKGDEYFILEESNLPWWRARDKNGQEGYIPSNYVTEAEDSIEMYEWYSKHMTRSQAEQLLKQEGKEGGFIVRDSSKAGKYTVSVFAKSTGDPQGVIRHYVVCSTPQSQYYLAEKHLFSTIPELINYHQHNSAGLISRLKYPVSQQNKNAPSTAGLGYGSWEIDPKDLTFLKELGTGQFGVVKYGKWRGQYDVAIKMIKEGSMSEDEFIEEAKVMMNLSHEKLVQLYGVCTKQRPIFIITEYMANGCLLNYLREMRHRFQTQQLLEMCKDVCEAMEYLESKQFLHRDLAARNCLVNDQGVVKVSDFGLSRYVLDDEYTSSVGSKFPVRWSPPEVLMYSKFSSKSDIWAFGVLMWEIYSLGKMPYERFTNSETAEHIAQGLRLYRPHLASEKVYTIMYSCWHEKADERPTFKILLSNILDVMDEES

MOLM-13 cells (AML) = test: Cell viability assay (CellTiter-Glo), MOLM-13; type: cell-based; settings: Homo sapiens, 72 h, n = 3
Protocol: (§1) All cell lines were purchased from ATCC, except for DoHH-2 cells that were obtained from DSMZ. Cells were cultivated in complete DMEM supplemented with 10% (vol/vol) FBS (Gibco) and 1% of penicillin/streptomycin (Gibco). The cells were grown in a humidified atmosphere of 5% CO2 at 37°C, with the medium changed every other day.
(§2) Cells were inoculated at a density of 5000 cells/well. Serially diluted compounds (starting at 50 μM) were added 24 h later. The assay was performed in triplicates. After 72 h of incubation, cellular viability was assessed by CellTiter-Glo (Promega) according to the manufacturer’s instructions. The values were normalized with the vehicle (DMSO), and the IC50 was calculated using GraphPad Prism 8.

HBEC-5i cell model = test: In vitro blood–brain barrier permeability (translocation), HBEC-5i cell model; type: in vitro ADME, human; settings: Translocation 24 h, compound 15 μM
Protocol: Human cerebral microvascular endothelial cells (HBEC-5i) were cultured as a monolayer on attachment factor protein solution (AF)-coated T-flasks (Gibco), using DMEM/F12 medium (Gibco), supplemented with 10% FBS, 1% penicillin/streptomycin, and 40.0 μg/mL endothelial cell growth supplement (ECGS, Sigma), according to the manufacturer’s instructions. The capacity of the compounds to cross the brain–blood barrier (BBB) was evaluated using an in vitro HBEC-5i cell model, as previously described.[29] Samples from the apical and basolateral sides were collected, and fluorescence intensity was measured using a Varioskan LUX multimode microplate reader. The retention was considered the difference between the initial fluorescence of compounds (100%) and the aggregated apical and basolateral fluorescence.

Raji cells (BL) = test: Cell viability assay (CellTiter-Glo), Raji; type: cell-based; settings: Homo sapiens, 72 h, n = 3
Protocol: as §1, §2

DoHH-2 cells (DLBCL) = test: Cell viability assay (CellTiter-Glo), DoHH-2; type: cell-based; settings: Homo sapiens, 72 h, n = 3
Protocol: as §1, §2

HL-60 cells (APML) = test: Cell viability assay (CellTiter-Glo), HL-60; type: cell-based; settings: Homo sapiens, 72 h, n = 3
Protocol: as §1, §2

Raji cells = test: Mice xenograft model of Burkitt’s lymphoma (subcutaneous Raji cells); type: in vivo
Protocol: Female adult BALB/c/NSG mice were injected subcutaneously with 1 × 10^6 Raji cells, in a 1:1 solution of Matrigel Matrix (Corning) to create solid tumors. When tumors reached 180 mm^3 on average, mice were randomized into four groups (n = 6/group), and dosing began every 2 days. […] Tumor size and body weight were monitored periodically for 12 days. At the end of the experiment, mice necropsies were performed. Stereological analysis was conducted by the Histopathology Unit at Instituto Gulbenkian de Ciência and by the Comparative Pathology Unit at Instituto de Medicina Molecular João Lobo Antunes. Quantification of metastases and cell necrosis was performed in all groups (n = 5/group). Statistical analysis was conducted using one-way ANOVA. The Dunnet test was used to analyze the statistical significance between the treatment groups and the control.

PBMCs from CLL patients = test: Zebrafish patient-derived xenografts of chronic lymphocytic leukemia; type: in vivo; settings: all zPDXs, 48 h of treatment
Protocol: Whole blood (3–6 mL) from CLL patients (Supporting Table S1) was collected, and PBMCs were purified by Ficoll-Paque PLUS (GE Healthcare) density centrifugation.
The collected PBMCs were resuspended in RPMI (Biowest) with 3 times their volume and centrifuged at 1400 rpm, 4 °C, for 7 min. Cell pellets were resuspended in DPBS 1× (Biowest) supplemented with universal nuclease at 25 U/mL (Thermo Scientific). Concentration was normalized to […] for zebrafish patient-derived xenograft (zPDX) generation. Prior to drug efficacy analysis in zebrafish, the cells were distributed to proceed for flow cytometry, to determine the percentage of CD19+CD5+ cells within the CD45+ population, from PBMCs of each CLL patient. The maximum tolerated concentration was also determined for each compound in noninjected zebrafish larvae (Supporting Figure S1).
Zebrafish larvae were anesthetized with Tricaine 1×, and thawed PBMCs were microinjected into the perivitelline space of anesthetized zebrafish larvae at 48 h post fertilization. […] At the end of the assay, 4 days post injection, zebrafish xenografts were sacrificed with an overdose of Tricaine 25× and fixed in 4% formaldehyde (Thermo Scientific) overnight, followed by storage in 100% methanol (VWR) at −20 °C.
The whole mount immunofluorescence protocol was started by rehydrating the xenografts through methanol series (75% > 50% > 25% in PBS 1×-Triton 0.1%). Next, the xenografts were permeabilized in PBS 1× with 0.1% (v/v) Triton and incubated in a blocking solution (containing 1% BSA and 1.5% goat serum) for 1 h at room temperature. The xenografts were incubated with the primary antibodies (anti-cleaved caspase 3—Cell Signaling Technology, clone Asp175, 9661, 1:100; anti-human mitochondria—Merck Millipore, clone 113-1, MAB1273, 1:50) diluted in the blocking solution overnight at 4 °C, followed by additional overnight incubation with 1:400 of secondary antibodies: Alexa goat anti-rabbit 594 (35560, Thermo Scientific) and Alexa goat anti-mouse 647 (84545, Thermo Scientific), and nuclei counterstaining with DAPI at 50 μg/mL (Sigma-Aldrich).
All images were obtained using a Zeiss LSM 980 Upright confocal laser scanning microscope. Xenografts were mounted in in-house Mowiol mounting media, and sequential images along tumor’s depth (from cloaca until the end of the tail) with a 5 μm interval were acquired using the z-stack function. […] For tumor burden, the area occupied by the PBMCs in each slice of the z-stack pile was determined by ImageJ software and summed up to obtain the tumor burden per xenograft. […]
Statistical analysis was performed using GraphPad Prism 8. […] A Gaussian distribution was only assumed for data sets that pass both normality tests and were analyzed by an unpaired t-test with Welch’s correction. […]

[1] = 1 µM inhibition screening, ref SI 8–10
[2] = 10 mg/kg, average of 5 animals, stereological analysis
[3] = 10 mg/kg, individual animals #1 to #5 in order

Structure (SMILES): C=CC(=O)N1CCC(CNc2ncnc(N)c2-c2ccc(Oc3ccccc3)cc2)CC1 [Evobrutinib, evobrutinib]
- inhibition, TEC (TEC): 82%
- inhibition, TXK (TXK; [1]): 36%
- inhibition, EGFR (EGFR; [1]): 0%
- inhibition, BLK (BLK; [1]): 36%

Structure (SMILES): CC#CC(=O)N1CC[C@@H](n2c(=O)n(-c3ccc(Oc4ccccc4)cc3)c3c(N)ncnc32)C1 [Tirabrutinib, tirabrutinib]
- IC50 (TXK; Table S3 heat map, ref SI 1-19): 92 nM
- IC50 (BLK; read-out: IC50, BLK, Table S3 heat map, ref SI 1-19): 300 nM
- IC50 (Her2): 7310 nM

Structure (SMILES): NC(=O)[C@H]1CCN(c2ncnc(N)c2F)C[C@@H]1N1CCC[C@@H](Nc2cc(Cl)cc(C(F)(F)F)c2)C1=O [Vecabrutinib]
- IC50 (EGFR; Table S3 heat map, ref SI 1-19): > 6000 nM
- IC50 (BTK): 3 nM

Structure (SMILES): C=CC(=O)N1CCC([C@@H]2CCNc3c(C(N)=O)c(-c4ccc(Oc5ccccc5)cc4)nn32)CC1 [Zanubrutinib, zanubrutinib]
- IC50 (Her2): 661 nM

Structure (SMILES): CC#CC(=O)N1CCC[C@H]1c1nc(-c2ccc(C(=O)Nc3ccccn3)cc2)c2c(N)nccn12 [acalabrutinib]
- IC50 (MOLM-13 cells (AML)): 28400 ± 30 nM
- % Fluorescence, Basolateral side (permeability to the BBB) (HBEC-5i cell model): 29.2%

Structure (SMILES): C=CC(=O)N1CCC[C@@H](n2nc(-c3ccc(Oc4ccccc4)cc3)c3c(N)ncnc32)C1 [ibrutinib, reference compound]
- IC50 (Raji cells (BL)): 36200 ± 310 nM
- IC50 (DoHH-2 cells (DLBCL)): ~70 nM
- IC50 (MOLM-13 cells (AML)): ~460 nM
- IC50 (HL-60 cells (APML)): 7740 ± 30 nM
- % Fluorescence, Basolateral side (permeability to the BBB) (HBEC-5i cell model): 51.9%
- reduction in percentage of metastases (Raji cells; 10 mg/kg i.p. every 2 days, n = 5/group): around 30%
- Metastasis volume, Brain, Average (Raji cells; [2]): 0.78 mm³
- Metastasis volume, Liver, Average (Raji cells; [2]): 4.73 mm³
- Metastasis volume, Lung, Average (Raji cells; [2]): 26.92 mm³
- Metastasis volume, Spinal, Average (Raji cells; [2]): 51.37 mm³
- Secondary tumour, Average (Raji cells; [2]): 64.21 mm³
- Metastasis volume, Brain, single animals (Raji cells; [3]): 0.86 mm³ and 0.82 mm³ and 0.00 mm³ and 1.72 mm³ and 0.48 mm³
- Metastasis volume, Liver, single animals (Raji cells; [3]): 12.05 mm³ and 11.54 mm³ and 0.03 mm³ and 0.00 mm³ (2×)
- Metastasis volume, Lung, single animals (Raji cells; [3]): 134.59 mm³ and 0.00 mm³ (4×)
- Metastasis volume, Spinal, single animals (Raji cells; [3]): 55.71 mm³ and 86.64 mm³ and 4.378 mm³ and 10.76 mm³ and 99.35 mm³
- Secondary tumour, single animals (Raji cells; [3]): 96.59 mm³ and 0.00 mm³ (3×) and 224.46 mm³

Structure (SMILES): CC1(C)CCC(CN2CCN(c3ccc(C(=O)NS(=O)(=O)c4ccc(NCC5CCOCC5)c([N+](=O)[O-])c4)c(Oc4cnc5[nH]ccc5c4)c3)CC2)=C(c2ccc(Cl)cc2)C1 [venetoclax, reference compound]
- effect on tumor incidence and burden (PBMCs from CLL patients): major impact on tumor incidence and burden
